Experimental data published in patent publication US12474342B2, “Methods for treating cancer and the use of biomarkers as a predictor of clinical sensitivity to therapies” (CELGENE CORPORATION, priority 2016, dated 2025).
pEC50, pIC50: −log10 of the molar value. Read-outs that look alike come from different tables or passages of the source.

Legend:
[1] = biological target: T1, GSPT1 (Homo sapiens, UniProt P15170+Q96SW2); experiment: GSPT1 protein reduction, western analysis, ML-2; format: cell-based; design: reduction in GSPT1 protein level was evaluated in human normal PBMCs; endogenous in cells; host or cells: primary PBMCs from normal donors (ID 4328, 4379) and AML patients (ID 11SH, 09P6)
Experimental: (§1) The time course of the reduction in GSPT1 by Compound D also was studied for up to 48 hours. The progressive degradation of GSPT1 over the course of 1 to 20 hours was evident in the presence of all concentrations of Compound D studied from 3 to 300 nM in HNT-34, HL-60, and ML-2 cells, with little GSPT1 remaining by 20 hours at 100 or 300 nM Compound D in HNT-34 or HL-60 cells (FIG. 34 and FIG. 35C). Time-dependent reduction in GSPT1 was also observed in KG-1 and OCI-AML2 cells at 3 to 1000 nM Compound D, with little GSPT1 remaining in KG-1 cells at 100 to 300 nM at 24 hours or in OCI-AML2 cells at 300 and 1000 nM at 24 hours (FIG. 35D). Loss of GSPT1 occurred more slowly in Kasumi-1, AML-193, and […] cells. […] A positive association (r^2=0.50; […]

[2] = test system: translational readthrough; experiment: AML2 readthrough assay (Fluc/Nluc-G36A reporter), OCI-AML2; format: cell-based, human; settings: 300 μg/ml G418 or 200 nM Compound D
Experimental: It is known that amino acid starvation causes GCN2 activation, which phosphorylates eIF2α. Because GSPT1 mediates normal translation termination, it is hypothesized that depletion of GSPT1 by Compound D may cause readthrough of stop codons. Whether the translational readthrough induced by Compound D contributes to the increased levels of p-eIF2α was investigated. OCI-AML2 cells stably expressing the Fluc/Nluc-G36A readthrough reporter were treated with 300 μg/ml G418 or 200 nM Compound D for 2, 4, 6, 8, 10, 12, or 16 hours. The levels of p-eIF2α were measured by immunoblot analysis. AML2 readthrough assay was conducted to measure the readthrough reporter.

[3] = test system: HNT-34 cells; experiment: Apoptosis (caspase 3/7 activation), HNT-34; format: cell-based, human; settings: for pEC50: Homo sapiens, read-out: Compound D-induced Apoptosis EC50
[4] = test system: DDIT3 (CHOP); experiment: DDIT3 (CHOP) mRNA, quantitative PCR, KG-1; format: cell-based, human; settings: KG-1, 100 nM Compound D or greater
Experimental: Compound D regulates UPR stress RNAs, ATF3 and CHOP, and nonsense-mediated decay (NMD) RNAs, SRSF3 and SRSF6, in KG-1 cells in both dose- and time-dependent manners. KG-1 cells were plated in 10 cm^2 dishes and incubated overnight. The following day, KG-1 cells were treated with a 6-point dose response (0, 3, 10, 30, 100, 300 nM) of Compound D and incubated for 2, 4, 8, and 20 hours. Cells were removed from dishes and cell pellets were prepared for RNA isolation (Qiagen RNA isolation kit). Total RNA was quantitated using NanoDrop spectrophotometer and cDNA was reversely transcribed using 1 μg total RNA. Quantitative PCR was performed in replicates for each sample using primer sets for ATF3, CHOP, and both NMD and normal transcripts of SRSF3 and SRSF6. Data was doubly normalized to the 18S housekeeping gene and 2 hour DMSO control. Normalized RNA expression (y-axis) versus drug concentration in nM (x-axis) for each time point was plotted. SRSF3-1 NMD and SRSF6-1 NMD depict amplification of NMD transcript for SRSF3 and SRSF6, respectively. SRSF3-3 Normal and SRSF6-3 Normal depict amplification of normal transcript for SRSF3 and SRSF6 genes, respectively. […] FIGS. 29A-29F show effects of Compound D treatment on UPR and NMD pathways in KG-1 cells. […] Additionally, 100 nM Compound D or greater induced the mRNA levels of ATF3 and DDIT3 (CHOP) approximately 100-fold and 10-fold, respectively. […]

[5] = test system: ATF3; experiment: ATF3 protein induction, western blot, HNT-34; format: cell-based, human; settings: HNT-34, 10 nM Compound D
Experimental: The time course of GSPT1 degradation was monitored by western blot analysis of HNT-34 AML cells and normal PBMCs (FIGS. 32A-32D) following incubation with Compound D (1, 10, and 100 nM).

[6] = test system: KG-1 cells; experiment: Anti-proliferation CTG assay, KG-1; format: cell-based, human
Experimental: The effect of depletion of GSPT1 on the anti-proliferative effect of compound Compound D and Compound E was also determined in human acute myelogenous leukemia cell lines AML and KG1. […]

[7] = biological target: T1, GSPT1; experiment: GSPT1 protein reduction, western analysis, AML-193; format: cell-based; design: reduction in GSPT1 protein level was evaluated in human normal PBMCs; endogenous in cells; host or cells: primary PBMCs from normal donors (ID 4328, 4379) and AML patients (ID 11SH, 09P6)
Experimental: as §1

[8] = test system: U-937 cells; experiment: Anti-proliferation CTG assay, U-937; format: cell-based, human
Experimental: A plethora of AML cell lines were treated with serial dilutions of Compound D. IC50 value of the anti-proliferation effect of Compound D (as determined in 72-hour CTG assays) in each cell line is summarized in Table 1.
The effect of overexpression of GSPT1 on the anti-proliferative effect of Compound D and Compound E was determined in human histiocytic lymphoma cell line U937 and human leukemia cell line MOLM13. Treatment compounds (e.g., Compound D or Compound E) were titrated from 0.001 μM to 10 μM. Cell proliferation was measured by CellTiter-Glo cell viability assay at 48 hours after treatment. […] However, when exogenous GSPT1 was overproduced via the EF1α promoter, as shown in FIGS. 5A-5D, the anti-proliferative effect of Compound D and Compound E reduced.

T1 sequence (P15170 1-637 isoform P15170-3): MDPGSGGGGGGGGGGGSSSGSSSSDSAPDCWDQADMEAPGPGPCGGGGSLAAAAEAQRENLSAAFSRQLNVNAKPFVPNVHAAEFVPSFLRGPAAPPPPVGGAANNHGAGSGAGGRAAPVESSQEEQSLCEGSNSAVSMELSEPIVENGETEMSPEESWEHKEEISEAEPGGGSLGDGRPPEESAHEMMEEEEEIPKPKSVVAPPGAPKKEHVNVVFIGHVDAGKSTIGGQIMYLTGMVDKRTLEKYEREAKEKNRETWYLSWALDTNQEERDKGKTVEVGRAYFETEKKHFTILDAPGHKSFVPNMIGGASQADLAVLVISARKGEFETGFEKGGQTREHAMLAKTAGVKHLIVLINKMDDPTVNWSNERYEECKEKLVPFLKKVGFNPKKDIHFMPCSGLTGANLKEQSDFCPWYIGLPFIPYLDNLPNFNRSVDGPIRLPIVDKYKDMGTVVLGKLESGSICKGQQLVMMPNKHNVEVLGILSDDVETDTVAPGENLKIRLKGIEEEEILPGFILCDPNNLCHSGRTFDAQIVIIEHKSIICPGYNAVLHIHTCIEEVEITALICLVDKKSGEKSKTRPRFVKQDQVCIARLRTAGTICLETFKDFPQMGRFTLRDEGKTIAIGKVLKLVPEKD
T1 sequence (Q96SW2 whole entry): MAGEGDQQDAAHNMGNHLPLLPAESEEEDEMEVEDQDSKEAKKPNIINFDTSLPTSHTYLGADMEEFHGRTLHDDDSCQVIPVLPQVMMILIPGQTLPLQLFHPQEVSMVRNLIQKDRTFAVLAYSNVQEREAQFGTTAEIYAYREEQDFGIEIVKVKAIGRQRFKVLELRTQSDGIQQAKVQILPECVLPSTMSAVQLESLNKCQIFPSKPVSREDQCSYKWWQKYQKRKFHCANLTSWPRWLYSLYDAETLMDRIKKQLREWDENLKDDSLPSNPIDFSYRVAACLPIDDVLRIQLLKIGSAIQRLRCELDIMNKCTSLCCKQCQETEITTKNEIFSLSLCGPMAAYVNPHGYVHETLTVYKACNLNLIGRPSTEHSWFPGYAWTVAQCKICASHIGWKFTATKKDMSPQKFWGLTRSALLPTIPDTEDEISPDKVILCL
T1 sequence (Q16531 whole entry partner): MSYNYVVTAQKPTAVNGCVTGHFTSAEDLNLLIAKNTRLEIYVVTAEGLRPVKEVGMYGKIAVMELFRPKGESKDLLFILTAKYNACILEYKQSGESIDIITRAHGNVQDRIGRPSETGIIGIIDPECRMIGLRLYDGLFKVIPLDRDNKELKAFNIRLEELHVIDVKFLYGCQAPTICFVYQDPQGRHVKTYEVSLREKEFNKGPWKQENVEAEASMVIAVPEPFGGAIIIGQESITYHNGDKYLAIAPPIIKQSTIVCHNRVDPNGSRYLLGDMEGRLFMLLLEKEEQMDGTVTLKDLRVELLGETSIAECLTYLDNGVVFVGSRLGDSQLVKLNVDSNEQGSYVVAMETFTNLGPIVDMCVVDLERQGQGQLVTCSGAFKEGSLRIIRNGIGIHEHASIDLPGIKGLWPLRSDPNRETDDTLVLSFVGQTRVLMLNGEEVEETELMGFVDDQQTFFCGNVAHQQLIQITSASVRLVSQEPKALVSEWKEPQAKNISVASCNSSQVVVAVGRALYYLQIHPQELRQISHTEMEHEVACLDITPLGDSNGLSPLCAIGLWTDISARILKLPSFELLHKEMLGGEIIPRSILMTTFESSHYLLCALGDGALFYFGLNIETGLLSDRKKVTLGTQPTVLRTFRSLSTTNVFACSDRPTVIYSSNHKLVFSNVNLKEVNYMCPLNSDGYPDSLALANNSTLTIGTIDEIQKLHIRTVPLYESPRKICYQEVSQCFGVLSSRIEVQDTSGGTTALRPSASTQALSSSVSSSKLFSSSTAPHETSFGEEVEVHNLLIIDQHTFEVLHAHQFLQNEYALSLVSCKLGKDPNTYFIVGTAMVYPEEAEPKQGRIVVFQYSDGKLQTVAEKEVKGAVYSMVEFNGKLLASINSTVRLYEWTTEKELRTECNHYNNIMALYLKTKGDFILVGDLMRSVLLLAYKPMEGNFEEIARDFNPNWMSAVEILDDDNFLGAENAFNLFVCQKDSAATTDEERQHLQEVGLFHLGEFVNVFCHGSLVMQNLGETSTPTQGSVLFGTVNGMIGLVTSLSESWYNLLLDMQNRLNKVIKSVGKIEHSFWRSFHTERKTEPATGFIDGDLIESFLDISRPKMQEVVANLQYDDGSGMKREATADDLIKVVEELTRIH

For `O=C1CCC(N2Cc3cc(CNC(=O)C(F)(F)c4ccc(Cl)cc4)ccc3C2=O)C(=O)N1` (stereo not drawn) [Compound D, 2-(4-chlorophenyl)-N-((2-(2,6-dioxopiperidin-3-yl)-1-oxoisoindolin-5-yl)methyl)-2,2-difluoroacetamide], the “reduction of GSPT1 protein levels” value ([1]; ML-2, 100 nM Compound D, 8 hours) was “greater than 800”, the “Percent Reduction at 100 nM Compound D GSPTI (8 hr)” value ([1]; ML-2, 100 nM, 8 hr) was 82% and the translational readthrough [2] was “induced translational readthrough at a comparable level”. For the same compound, the “Average Percent Increase in Apoptosis at 123 nM Compound D, Apoptosis (12 hr)” value ([3]; HNT-34, 123 nM, 12 hr) was 3%, the “Average Percent Increase in Apoptosis at 123 nM Compound D, Apoptosis (24 hr)” value ([3]; HNT-34, 123 nM, 24 hr) was 12% and the “Average Percent Increase in Apoptosis at 123 nM Compound D, Apoptosis (48 hr)” value ([3]; HNT-34, 123 nM, 48 hr) was 32%. It also gave a pEC50 ([3]; HNT-34, 24 hr) of 8.15, a pEC50 ([3]; HNT-34, 48 hr) of 8.40 and a pEC50 ([3]; HNT-34, 96 hr) of 8.70. For the same compound, the “induction of DDIT3 (CHOP) mRNA level” value [4] was about 10 fold, the “time of induction of ATF3 protein” value [5] was 12 h and the pIC50 ([6]; Homo sapiens, KG-1, KG-1, Compound F 0 μM, read-out: Inhibition of Cell Proliferation by Compound D (CTG assay) IC50) was 8.00. For the same compound, the pIC50 ([6]; Homo sapiens, KG-1, KG-1, Compound F 30 μM, read-out: Inhibition of Cell Proliferation by Compound D (CTG assay) IC50) was 5.82, the pIC50 ([6]; Homo sapiens, KG-1, 72-hour CTG assay, read-out: IC50 of the anti-proliferative effect) was 7.82 and the “cell proliferation (CellTiter-Glo)” value ([6]; KG1 parental or control shRNA cells, 0.0001 μM to 1 μM, two days) was “exhibited anti-proliferative effect, particularly at high concentration”. The pIC50 ([6]; read-out: Inhibition of Cell Proliferation by Compound D (CTG assay) IC50) was 5.17, the “Percent Reduction at 100 nM Compound D GSPTI (8 hr)” value ([7]; AML-193, 100 nM, 8 hr) was 49% and the GSPT1 reduction ([7]; AML-193, 300 nM Compound D, 8 hours) was 61%. For the same compound, the pIC50 ([8]; Homo sapiens, U-937, 72-hour CTG assay, read-out: IC50 of the anti-proliferative effect) was 7.13, the anti-proliferative effect ([8]; U937 CRBN -/- cells, 48 hours) was “completely abolished” and the “cell proliferation (CellTiter-Glo)” value ([8]; U937 parental cells, 0.001 μM to 10 μM, 48 hours) was “inhibited cell proliferation”.
